The target of data set [1] is T1, purified recombinant Cdc25-C enzyme (MBP-Cdc25C protein) (Homo sapiens, UniProt P30307).
T1 construct: made in house
T1 sequence (P30307 1-473): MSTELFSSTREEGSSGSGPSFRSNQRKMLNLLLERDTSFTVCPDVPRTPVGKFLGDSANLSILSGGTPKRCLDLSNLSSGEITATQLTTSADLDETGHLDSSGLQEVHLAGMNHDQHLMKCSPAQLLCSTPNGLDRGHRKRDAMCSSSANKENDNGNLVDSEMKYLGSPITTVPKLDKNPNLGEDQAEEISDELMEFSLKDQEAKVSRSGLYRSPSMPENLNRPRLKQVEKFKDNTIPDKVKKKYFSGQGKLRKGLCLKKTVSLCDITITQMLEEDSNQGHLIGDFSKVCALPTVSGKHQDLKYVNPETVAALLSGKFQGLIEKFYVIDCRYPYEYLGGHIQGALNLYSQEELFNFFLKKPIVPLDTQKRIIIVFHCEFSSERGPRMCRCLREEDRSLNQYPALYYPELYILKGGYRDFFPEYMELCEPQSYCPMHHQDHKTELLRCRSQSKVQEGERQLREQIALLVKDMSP
The experiment in a line: Phosphatase activity of the purified recombinant Cdc25C enzyme (OMFP dephosphorylation, fluorescence). In kind it is biochemical. The conditions noted are these: OMFP 500 μM, 4 hours at 30° C. How it is done: The phosphatase activity of the MBP-Cdc25C protein is evaluated through its dephosphorylation of 3-O-methylfluorescein-phosphate (OMFP) to form 3-O-methylfluorescein (OMF), determining the fluorescence of the reaction product at 475 nm. This assay can be used to identify inhibitors of the recombinant Cdc25 enzyme. The preparation of the MBP-Cdc25C fusion protein is described in patent application PCT WO 01/44467.
The reaction is performed in 384-well plates in a final volume of 50 μl. The MBP-Cdc25C protein (prepared as described hereinabove) is stored in the following elution buffer: 20 mM Tris-HCl pH 7.4; 250 mM NaCl; 1 mM EDTA; 1 mM dithiothreitol (DTT); 10 mM maltose. It is diluted to a concentration of 60 μM in the following reaction buffer: 50 mM Tris-HCl pH 8.2; 50 mM NaCl; 1 mM DTT; 20% glycerol. The background noise is determined using with the buffer without addition of the enzyme. The products are tested at decreasing concentrations from 40 μM. The reaction is initiated by the addition of a solution OMFP to a final concentration of 500 μM (prepared immediately before use from a 12.5 mM stock solution in 100% DMSO (Sigma #M2629)). After 4 hours at 30° C. in a disposable 384-well plate, the fluorescence measured at OD 475 nm is read on a Victor^2 plate reader (EGG-Wallac). The concentration that produces 50% inhibition of the enzyme reaction is calculated from three independent experiments. Only the values that fall within the linear part of the sigmoid curve are used for the linear regression analysis.

The subject of data set [2] is DU145 (human prostate cancer cells). The experiment in a line: Anti-proliferative activity on DU-145 cell line (WST1 colorimetric test). The format is cell-based. As to conditions: read-out: IC50 on the proliferation of the DU-145 cell line. The protocol:
(§1) By way of an example, the effect of treating two human cell lines Mia-Paca2 and DU145 with the compounds of the examples described hereinbefore will be studied. The cell lines DU145 (human prostate cancer cells) and Mia-PaCa2 (human pancreas cancer cells) were obtained from the American Tissue Culture Collection (Rockville, Md., USA). A 96-well plate was inoculated on day 0 with cells placed in 80 μl of Dulbecco's modified Eagle's medium (Gibco-Brl, Cergy-Pontoise, France) with 10% heat-inactivated foetal calf serum (Gibco-Brl, Cergy-Pontoise, France), 50000 units/1 of penicillin and 50 mg/l of streptomycin (Gibco-Brl, Cergy-Pontoise, France), and 2 mM of glutamine (Gibco-Brl, Cergy-Pontoise, France). The cells were treated on day 1 with increasing concentrations of each test compound up to 10 μM for 96 hours. At the end of this period, cell proliferation is quantified by means of a colorimetric test based on cleavage of the tetrazolium salt WST1 by the mitochondrial dehydrogenases in the viable cells, resulting in formation of formazan (Boehringer Mannheim, Meylan, France). These tests are performed in duplicate with 8 determinations per concentration tested. For each compound to be tested, the values within the linear part of the sigmoid curve were subjected to linear regression analysis and used to estimate the IC50 inhibitory concentration. The products are solubilised in dimethylsulfoxide (DMSO) at a concentration of 10^−2 M and used in culture with a final DMSO concentration of 0.1%.

The subject of data set [3] is Mia-PaCa2 (human pancreas cancer cells). The experiment in a line: Anti-proliferative activity on Mia-Paca2 cell line (WST1 colorimetric test). In kind it is cell-based. As to conditions: MIA PaCa-2, 96 h, 96 hours treatment, read-out: IC50 on proliferation of the Mia-Paca2 cell line. How it is done:
as §1
On the technique in general: Tetrazolium assays rely on reduction of a dye to a coloured formazan, in cell work by metabolically active cells.

[4] abbreviates: DU-145, 96 h, 96 hours treatment.

Read-outs that look alike come from different tables or passages of the source.

In general, melting point refers to the temperature, or range, at which the solid turns liquid.

`CN(CCNC(=S)Nc1ccc(Oc2ccccc2)cc1)CCNc1cc(N2CCCC2)nc(N2CCCC2)n1` [Example 36, N-{2-[{2-[(2,6-dipyrrolidin-1-ylpyrimidin-4-yl)amino]ethyl}(methyl)amino]ethyl}-N′-(4-phenoxyphenyl)thiourea] registered a melting point of 79 to 81 °C. Besides, in data set [1], the IC50 is not above 5 µM. In addition, the IC50 in data set [2] (setting [4]) was not above 5 µM.

`CN(CCNc1cc(N2CCCC2)nc(N2CCCC2)n1)CCNS(=O)(=O)c1ccc([N+](=O)[O-])cc1` [Example 87, N-{2-[{2-[(2,6-dipyrrolidin-1-ylpyrimidin-4-yl)amino]ethyl}(methyl)amino]ethyl}-4-nitrobenzenesulfonamide] showed a melting point of 144 to 145 °C. For the same molecule, in data set [1], the IC50 is not above 1 µM. For the same molecule, in data set [3], the IC50 is not above 5 µM.

Turning to `CN(CCNC(=O)Nc1cccs1)CCNc1cc(N2CCCC2)nc(N2CCCC2)n1` [Example 10, N-{2-[{2-[(2,6-dipyrrolidin-1-ylpyrimidin-4-yl)amino]ethyl}(methyl)amino]ethyl}-N′-2-thienylurea], the melting point is 133 to 135 °C. The IC50 in data set [1] was not above 1 µM. In addition, the IC50 in data set [2] (setting [4]) is not above 5 µM.

With `CN(CCNC(=O)N[C@@H]1CCc2ccccc2C1)CCNc1cc(N2CCCC2)nc(N2CCCC2)n1` [Example 11], the IC50 in data set [1] is not above 5 µM; in data set [2] (DU-145, 96 hours treatment), not above 5 µM.

Molecule `CN(CCNC(=S)Nc1ccc(F)cc1)CCNc1cc(N2CCCC2)nc(N2CCCC2)n1` [Example 24, N-{2-[{2-[(2,6-dipyrrolidin-1-ylpyrimidin-4-yl)amino]ethyl}(methyl)amino]ethyl}-N′-(4-fluorophenyl)thiourea] returned a melting point of 115 to 117 °C. For the same molecule, in data set [1], the IC50 was not above 5 µM. In addition, the IC50 in data set [2] (setting [4]) was not above 5 µM.

The molecule `COc1ccc(NC(=S)NCCN(C)CCNc2cc(N3CCCC3)nc(N3CCCC3)n2)cc1` [Example 35, N-{2-[{2-[(2,6-dipyrrolidin-1-ylpyrimidin-4-yl)amino]ethyl}(methyl)amino]ethyl}-N′-(4-methoxyphenyl)thiourea] came in with a melting point of 127 to 129 °C. In addition, the IC50 in data set [1] is not above 5 µM. Moreover, the IC50 in data set [2] (setting [4]) was not above 5 µM.

Take `CN(CCNC(=S)Nc1ccc(C(C)(C)C)cc1)CCNc1cc(N2CCCC2)nc(N2CCCC2)n1` [Example 44, N-(4-tert-butylphenyl)-N′-{2-[{2-[(2,6-dipyrrolidin-1-ylpyrimidin-4-yl)amino]ethyl}(methyl)amino]ethyl}thiourea]: the melting point was 192 to 194 °C. For the same molecule, in data set [1], the IC50 is not above 1 µM. The IC50 in data set [2] (setting [4]) was not above 5 µM.

Regarding `CSc1ccc(NC(=S)NCCN(C)CCNc2cc(N3CCCC3)nc(N3CCCC3)n2)cc1` [Example 51, N-{2-[{2-[(2,6-dipyrrolidin-1-ylpyrimidin-4-yl)amino]ethyl}(methyl)amino]ethyl}-N′-[4-(methylthio)phenyl]thiourea], the melting point fell in the range of 67 to 69 °C. Moreover, in data set [1], the IC50 is not above 1 µM. The IC50 in data set [2] (setting [4]) is not above 5 µM.

The molecule `CN(CCNC(=S)Nc1ccc(Oc2ccccc2)nc1)CCNc1cc(N2CCCC2)nc(N2CCCC2)n1` [Example 30, N-{2-[{2-[(2,6-dipyrrolidin-1-ylpyrimidin-4-yl)amino]ethyl}(methyl)amino]ethyl}-N′-(6-phenoxypyridin-3-yl)thiourea] came in with a melting point of 104 to 106 °C. Further, in data set [1], the IC50 was not above 5 µM. Moreover, the IC50 in data set [2] (setting [4]) was not above 5 µM.

Consider `CN(CCNC(=S)Nc1ccc(Oc2ccc([N+](=O)[O-])cc2)cc1)CCNc1cc(N2CCCC2)nc(N2CCCC2)n1` [Example 45, N-{2-[{2-[(2,6-dipyrrolidin-1-ylpyrimidin-4-yl)amino]ethyl}(methyl)amino]ethyl}-N′-[4-(4-nitrophenoxy)phenyl]thiourea], for which the IC50 in data set [1] and in data set [2] (setting [4]) was not above 5 µM in each case.

Take `CN(CCNC(=S)Nc1ccc(C(F)(F)F)cc1)CCNc1cc(N2CCCC2)nc(N2CCCC2)n1` [Example 25, N-{2-[{2-[(2,6-dipyrrolidin-1-ylpyrimidin-4-yl)amino]ethyl}(methyl)amino]ethyl}-N′-[4-(trifluoromethyl)phenyl]thiourea]: the melting point lay in the range of 87 to 89 °C. Besides, the IC50 in data set [2] (setting [4]) was not above 5 µM.

On to `CN(CCNC(=S)Nc1ccc(Cl)cc1)CCNc1cc(N2CCCCC2)nc(N2CCCCC2)n1` [Example 69, N-(4-chlorophenyl)-N′-{2-[{2-[(2,6-dipiperidin-1-ylpyrimidin-4-yl)amino]ethyl}(methyl)amino]ethyl}thiourea], for which the melting point lay within 76 to 78 °C. Further, the IC50 in data set [1] is not above 1 µM. Moreover, the IC50 in data set [2] (setting [4]) is not above 5 µM.

`CN(CCNC(=S)Nc1ccc(-c2cnco2)cc1)CCNc1cc(N2CCCC2)nc(N2CCCC2)n1` [Example 33, N-{2-[{2-[(2,6-dipyrrolidin-1-ylpyrimidin-4-yl)amino]ethyl}(methyl)amino]ethyl}-N′-[4-(1,3-oxazol-5-yl)phenyl]thiourea] returned a melting point of 104 to 106 °C. Besides, the IC50 in data set [1] was not above 5 µM. In addition, the IC50 in data set [2] (setting [4]) was not above 5 µM.

`CN(CCNC(=S)Nc1ccc(OC(F)(F)F)cc1)CCNc1cc(N2CCCC2)nc(N2CCCC2)n1` [Example 23, N-{2-[{2-[(2,6-dipyrrolidin-1-ylpyrimidin-4-yl)amino]ethyl}(methyl)amino]ethyl}-N′-[4-(trifluoromethoxy)phenyl]thiourea] yielded a melting point of 118 to 120 °C. For the same molecule, the IC50 in data set [1] is not above 5 µM. Also, the IC50 in data set [2] (setting [4]) was not above 5 µM.

`CN(CCNC(=S)Nc1cccc2ccccc12)CCNc1cc(N2CCCC2)nc(N2CCCC2)n1` [Example 37, N-{2-[{2-[(2,6-dipyrrolidin-1-ylpyrimidin-4-yl)amino]ethyl}(methyl)amino]ethyl}-N′-1-naphthylthiourea]: the melting point is 87 to 89 °C. Moreover, the IC50 in data set [1] is not above 5 µM. Also, the IC50 in data set [2] (setting [4]) was not above 5 µM.

As for `CCNc1cc(NCCN(C)CCNC(=S)Nc2ccc(Cl)cc2)nc(NCC)n1` [Example 79, N-{2-[(2-{[2,6-bis(ethylamino)pyrimidin-4-yl]amino}ethyl)(methyl)amino]ethyl}-N′-(4-chlorophenyl)thiourea], the melting point is 142 to 144 °C. Moreover, the IC50 in data set [3] is not above 5 µM.

In the case of `CN(C)CCN(C)c1cc(NCCN(C)CCNC(=S)Nc2ccc(Cl)cc2)nc(N(C)CCN(C)C)n1` [Example 64, N-{2-[[2-({2,6-bis[[2-(dimethylamino)ethyl](methyl)amino]pyrimidin-4-yl}amino)ethyl](methyl)amino]ethyl}-N′-(4-chlorophenyl)thiourea], the IC50 in data set [1] and in data set [3] was not above 5 µM in each case.

`CN(CCNC(=S)Nc1ccc(Cl)c(Cl)c1)CCNc1cc(N2CCCC2)nc(N2CCCC2)n1` [Example 55, N-(3,4-dichlorophenyl)-N′-{2-[{2-[(2,6-dipyrrolidin-1-ylpyrimidin-4-yl)amino]ethyl}(methyl)amino]ethyl}thiourea] yielded a melting point of 148 to 150 °C. For the same molecule, the IC50 in data set [1] is not above 5 µM.
